From patent US20260070921A1, “COMPOUND, ENDOPLASMIC RETICULUM STRESS INHIBITOR, PHARMACEUTICAL PRODUCT, OPHTHALMIC AGENT, EYE DROPS, COMPOSITION, AND METHOD FOR PRODUCING COMPOUND” (KYOTO UNIVERSITY, priority 2022, published 2026)

Experiments:
caspase 3 = experiment: Western blotting of TGF-β2-induced caspase activation in iFECD; type: cell-based, human; settings: TGF-β2 stimulated iFECD
Method: In order to collect floating cells and dead cells, the medium was collected on ice, and the solution resulting from washing cells with 1×PBS(−) twice was also collected and centrifuged at 4° C. at 800 g for 12 minutes, followed by discarding the supernatant, thereby obtaining a precipitate. Proteins were extracted from the washed cells by adding a protein extraction buffer (RIPA; 50 mM Tris-HCl (pH of 7.4), 150 mM NaCl, 1 mM EDTA, 0.1% SDS, 0.5% DOC, 1% NP-40) on ice. Thereafter, the precipitate obtained after centrifugation of the floating cells and dead cells was suspended together and extracted. The collected liquid was pulverized in cold water for 30 seconds three times with an ultrasonic device (BIORUPTOR, Tosho Denki) and then centrifuged at 4° C. at 15000 rpm for 10 minutes to collect the protein supernatant.
5 to 8 μg of the extracted proteins were separated by SDS-PAGE and transferred to a nitrocellulose membrane. The primary antibodies used were rabbit anti-Caspase 3 antibody (Cell Signaling, 9662), rabbit anti-PARP antibody (Cell Signaling, 9542), and mouse anti-GAPDH antibody (MBL, M171-3). […] The intensity of the detected bands was analyzed using a LAS-4000mini lumino image analyzer (Fujifilm) and ImageQuant™ software (GE Healthcare).

[1] = test system: mouse embryonic fibroblasts (MEFs); experiment: Tunicamycin assay using autophagy-deficient cells; type: cell-based; settings: for Rescue from ER stress-induced cell death: wild-type MEFs, compound 1 100 μM, compound 6 25 μM, 18 h, tunicamycin 5.0 μg/mL 48 h
Method: (§1) Cellular protein aggregates are often cleared by cellular mechanisms, such as autophagy and ubiquitin-proteasome system. To examine the importance of these proteolytic pathways in the activity of compounds 1 and 6, their ability to inhibit tunicamycin-induced cytotoxicity in the presence of an autophagy or proteasome inhibitor (bafilomycin A1 or MG132, respectively) was measured. FIG. 9 is a graph showing the results of a tunicamycin assay using an autophagy or proteasome inhibitor. Cells were pre-incubated with compound 1 or compound 6 for 16 hours and then treated with tunicamycin (5.0 μg/mL) in the presence or absence of a specified substance for 48 hours. FIG. 9(A) is a graph showing measurements in the presence or absence of bafilomycin A1 (Baf A1, autophagy inhibitor). FIG. 9(B) is a graph showing measurements in the presence or absence of MG132 (proteasome inhibitor). Error bars represent s.d. (n=3). Statistical analysis was performed according to the one-way ANOVA and Dunnett's test. *P<0.05; n.s.: not significant. […] The concentrations used of the inhibitors were confirmed to be non-toxic to cells (FIGS. 31 and 32). To further study the role of autophagy, autophagy-deficient atg7^−/− and p62^−/− mouse embryonic fibroblasts (MEFs) were subjected to a tunicamycin assay. FIG. 10 is a graph showing the results of the tunicamycin assay using the autophagy-deficient cells. Wild-type (wt), atg7^−/−, or p62^−/− mouse embryonic fibroblasts (MEFs) were treated with molecule 1 (100 μM) or molecule 6 (25 μM) for 18 hours and then incubated with tunicamycin (5.0 μg/mL) for 48 hours. Error bars represent s.d. (n=3). Statistical analysis was performed according to the one-way ANOVA and Dunnett's test. *P<0.05, **P<0.01. ATG7 is an E1-like enzyme important for phagophore expansion, and p62 is an autophagy receptor for ubiquitinated substrates (Reference Material 20 below). Wild-type (wt), atg7^−/−, or p62^−/− MEF cells were treated with compound 1 or compound 6 for 18 hours, followed by treatment with tunicamycin (5.0 μg/mL) for 48 hours. […] Nat Rev Mol Cell Bio 2018, 19 (6), 349-364. https://doi.org/10.1038/s41580-018-0003-4.

BiP = experiment: Quantitative RT-PCR of ER stress-related genes, BiP; type: cell-based; settings: pretreatment 10 h, tunicamycin 1.0 μg/mL 24 h
Method: (§2) First, total RNA was isolated using ISOGEN (tradename of Nippon Gene Co., Ltd.). cDNA was prepared using a Prime Script (trade name) first-strand cDNA synthesis kit (TaKaRa). qRT-PCR was performed with Fast SYBR Green Master Mix (Thermo Fisher) on a QuantStudio 3 real-time PCR system (Thermo Fisher). The copy number of each transcript is expressed relative to β-actin. The sequences of the primers (forward and reverse) are as follows: […]
(§3) The ability to alleviate endoplasmic reticulum (ER) stress of compound 1 was examined in HEK293 cells. FIGS. 1 and 2 show the biological activity of compound 1 for decreasing cytotoxicity under ER stress. […] Error bars represent s.d. (n=3). Statistical analysis was performed according to one-way ANOVA and a Dunnett's test using R software. […] To further study the effect of compound 1 on ER stress, mRNA levels of typical UPR genes, such as ATF4, s-XPB1, CHOP, BiP, and ERDJ4, were examined. In addition to compound 1, compound 6 was also tested in the same experiment. […] The quantitative RT-PCR was performed according to the method described above. HEK293 cells were treated with compound 1 (100 μM) for 10 hours and then incubated with tunicamycin (1.0 μg/mL) for 24 hours. Isolated RNA samples were subjected to reverse transcription and quantitative RT-PCR. […]

CHOP = experiment: Quantitative RT-PCR of ER stress-related genes, CHOP; type: cell-based; settings: pretreatment 10 h, tunicamycin 1.0 μg/mL 24 h
Method: as §2, §3

HEK293 cells = experiment: Tunicamycin assay using an autophagy or proteasome inhibitor; type: cell-based; settings: pre-incubation 16 h, tunicamycin 5.0 μg/mL 48 h
Method: as §1

BSA = BSA (Bos taurus, UniProt P02769); experiment: Native PAGE analysis of heat-induced BSA denaturation; type: biochemical; settings: 75° C. 1 h; compounds 100 μM, PBA 10 mM
Chain of BSA (P02769 25-607): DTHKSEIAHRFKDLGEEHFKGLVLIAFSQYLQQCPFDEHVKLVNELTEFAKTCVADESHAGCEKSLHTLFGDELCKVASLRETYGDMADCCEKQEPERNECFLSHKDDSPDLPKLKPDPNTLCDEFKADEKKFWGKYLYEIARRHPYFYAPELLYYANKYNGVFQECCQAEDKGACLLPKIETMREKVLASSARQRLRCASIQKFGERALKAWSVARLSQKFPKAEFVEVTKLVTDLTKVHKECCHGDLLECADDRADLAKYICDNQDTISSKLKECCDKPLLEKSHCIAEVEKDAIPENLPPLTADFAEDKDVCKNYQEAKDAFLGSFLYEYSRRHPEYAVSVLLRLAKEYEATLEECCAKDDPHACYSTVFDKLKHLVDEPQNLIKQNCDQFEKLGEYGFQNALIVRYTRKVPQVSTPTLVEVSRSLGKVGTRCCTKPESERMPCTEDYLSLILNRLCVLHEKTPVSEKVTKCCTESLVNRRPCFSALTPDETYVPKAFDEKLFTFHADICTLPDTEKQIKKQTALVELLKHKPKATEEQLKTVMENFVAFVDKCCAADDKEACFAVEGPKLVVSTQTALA
Method: Samples were subjected to native PAGE analysis using 8% acrylamide gels in 0.1 M Tris-HCl, pH of 7.8 (cathode) and 68 mM glycine, 53 mM Tris-HCl, pH of 8.9 (anode). After staining the gel with Coomassie Brilliant Blue, images were taken using an ImageQuant LAS500 imager (Cytiva).

| SMILES | Cleaved active caspase 3 (about 17 kDa) (caspase 3) | Ability to rescue from ER stress-induced cell death ([1]; atg7−/− MEFs) | Ability to rescue from ER stress-induced cell death ([1]; p62−/− MEFs) | Rescue from ER stress-induced cell death [1] | Effect on BiP mRNA levels (BiP) | Increase in CHOP mRNA levels (CHOP) | Activity in the presence of MG132 (HEK293 cells) | Activity in the presence of bafilomycin A1 (HEK293 cells) | Inhibition of heat-induced denaturation of BSA (BSA) |
| --- | --- | --- | --- | --- | --- | --- | --- | --- | --- |
| NS(=O)(=O)c1ccc(Nc2ccn3c(n2)nc(=O)c2sc4cc(F)ccc4c23)cc1 [compound 1] | hardly detected | severely impaired | severely impaired | rescued | limited effect | completely suppressed | no significant effect | partially canceled | does not exhibit activity to inhibit the thermal denaturation of BSA |
| COc1ccc2c(c1)sc1c(=O)nc3nc(Nc4ccc(S(N)(=O)=O)cc4)ccn3c12 [compound 6] | hardly detected | severely impaired | severely impaired | rescued | limited effect | completely suppressed | no significant effect | partially canceled | does not exhibit activity to inhibit the thermal denaturation of BSA |
